Measurements as given in patent publication US20210062367A1, “METHOD FOR PRODUCING LIBRARY FOR USE IN PREDICTION OF ACTION OF SUBSTANCE OF INTEREST ON LIVING BODY, AND METHOD FOR […] OF SUBSTANCE OF INTEREST ON LIVING BODY BASED ON CHANGE IN ACTION PARAMETER OR THE LIKE OF ZEBRAFISH” (SUNTORY HOLDINGS LIMITED, priority 2017, published 2021).

Key:
[1] = test system: per1b; test: Zebrafish oligo-DNA microarray gene expression with cluster analysis together with behavioral data (EGCG vs library); type: in vivo, Zebrafish (Danio rerio), AB Line 6 dpf; conditions: EGCG 0.003 mg/mL; per1b clusters with L-DMT D, L-DMT L1, L-DMT L2
Experimental: This can be done by citing array data of Diazepam (GSE23157) and Haloperidol (GSE89780) from a public DB (Geo Datasets).
Based on these array data, the normalization of the data in the arrays is performed in the procedure described above using software in Gene Springs and data among arrays are normalized by a method using the Z score.
(3) Link the administration of EGCG and the change in expression levels of genes using microarray experiments.
(§1) The microarray experiments can be performed using Zebrafish oligo-DNA micro array Ver.3.0 manufactured by Agilent Technologies, Inc. according to protocol.
(§2) Based on array data obtained by this microarray experiment, the normalization of the data in the arrays is performed in the procedure described above using software in Gene Springs and data among arrays are normalized by a method using the Z score.
Processing of statistically matching and analyzing the numerical data for Diazepam and Haloperidol recorded in the library and the numerical data with the administration of EGCG was conducted by the cluster analysis as follows.
In the result of cluster analysis including data of change in expression levels of genes, the action and mechanism of EGCG can be estimated based on the Gene Ontrogy (GO) information of the gene expression data by paying attention on data having high correlation between EGCG and Diazepam (data clustered in close relation). […]

[2] = test system: zebrafish; test: Zebrafish behavioral parameter measurement (Danio Vision/Ethovision) with cluster analysis against library of Diazepam and Haloperidol; type: in vivo, Zebrafish (Danio rerio), AB Line 6 dpf; conditions: EGCG 0.003 mg/mL; estimated from similarity to Diazepam
Experimental: 0.3×Danieau's solution (19.3 mM NaCl, 0.23 mM KCl, 0.23 mM MgSO4, 0.2 mM Ca(NO3)2, 1.7 mM HEPES, pH 7.2) is used as a water bath.
Zebrafish is prepared by growing it under the following conditions to 6 dpf.
For each substance of known action, the reagent in which the substance was dissolved in the water bath and adjusted at a concentration of 10 μM was prepared.
(1) Add 1 ml of the water bath to each well of a 48-well plate. Transfer one zebrafish (6 dpf) per well thereto and adjust the temperature to 28° C. and maintain the temperature for from 30 minutes to 1 hour.
(2) Remove the liquid in the 48-well plate with a pipette and then add 1 ml/well of any of the reagents. […]
(§3) The repetition of light and dark periods with cycled of a light period for 3 hours (period L1)—a dark period for 10 hours (period D)—a light period for 11 hours (period L2) is performed and the behavior of zebrafish is recorded for 24 hours. […]
(§4) For each class of mobility states, the indicators DMF, IZF, DTZ, and TA are measured. […]
(§5) (2) Store the measured behavioral parameters as raw data of the following forms. • Type of reagent (any of the reagents prepared in [Preparation of reagents for production of library] or control) • Mobility state (95 to 65 (high speed), 65 to 35 (moderate speed), or 35 to 05 (low speed)) • Repetition of light and dark periods (L1, D, or L2) • Indicator (DMF, IZF, DTZ, or TA) […]

[3] = test system: zebrafish; conditions: modafinil given to zebrafish in bath; compared with ethanol; cited from earlier work
[4] = test system: nfi13-6; test: Zebrafish oligo-DNA microarray gene expression with cluster analysis together with behavioral data (8beta vs library); type: in vivo, MieKomachi 002 Line 8 dpf; conditions: 8beta 10 μM; nfi13-6 clusters with H-, M-, L-DMT D, L1, L2
Experimental: (5) Subsequently, link the administration of the substance of known action and the change in expression levels of genes using microarray experiments.
as §1
Based on array data obtained by this microarray experiment, the normalization of the data in the arrays is performed in the procedure described above using software in Gene Springs.
(3) Link the administration of 8beta and the change in expression levels of genes using microarray experiments.
The microarray experiments can be performed using zebrafish oligo-DNA micro array Ver.3.0 manufactured by Agilent Technologies, Inc. according to protocol.
as §2
Processing of statistically matching and analyzing the numerical data for Suvorexant and Imipramine recorded in the library and the numerical data with the administration of 8beta was conducted by the cluster analysis as follows. […]

[5] = test system: zebrafish; test: Zebrafish behavioral parameter measurement (Danio Vision/Ethovision) with cluster analysis against library of Suvorexant and Imipramine; type: in vivo, MieKomachi 002 Line 8 dpf; conditions: 8beta 10 μM; estimated from similarity to Suvorexant
Experimental: 0.3×Danieau's solution (19.3 mM NaCl, 0.23 mM KCl, 0.23 mM MgSO4, 0.2 mM Ca(NO3)2, 1.7 mM HEPES, pH 7.2) is used as a water bath, and a 0.1% DMSO-containing water bath is used.
Zebrafish is prepared by growing it under the following conditions to 8 dpf.
Zebrafish: MieKomachi 002 Line 8 dpf
For each substance of known action, the reagent in which the substance was dissolved in the water bath and adjusted at a concentration of 1 μM was prepared.
(1) Add 1 ml of the water bath to each well of a 48-well plate. Transfer one zebrafish (8 dpf) per well thereto and adjust the temperature to 28° C. and maintain the temperature for from 30 minutes to 1 hour. […]
as §3, §4, §5

With O=C(O[C@@H]1Cc2c(O)cc(O)cc2O[C@@H]1c1cc(O)c(O)c(O)c1)c1cc(O)c(O)c(O)c1 [EGCG, epigallocatechin gallate] the “gene expression data (per1b), cluster analysis of change in expression levels” value [1] was “change with correlation between EGCG and Diazepam” and the “action estimated from closely related drug in cluster analysis” value [2] was “sedative action”.

In the case of NC(=O)C[S+]([O-])C(c1ccccc1)c1ccccc1 (centres unmarked) [modafinil], the “action suggested by behavioral analysis of zebrafish” value [3] is given as “antianxiety action”.

With C=C1C(=O)OC2C=C(C)CCC=C(C)CC(OC(=O)/C(C)=C/CO)C12 (stereo not drawn) [8beta, 8beta-(4′-hydroxytigloyloxy)costunolide] the “gene expression data (nfi13-6), cluster analysis of change in expression levels” value [4] was “change with correlation between 8beta and Suvorexant” and the “action estimated from closely related drug in cluster analysis” value [5] was “sleep action”.
